Assay results taken from PMC4900628, “Critical Evaluation of P2X7 Receptor Antagonists in Selected Seizure Models” (PLoS ONE, 2016).

Key:
[1] = system: electroshock-induced tonic (hindlimb extension) seizures; test: Maximal electroshock seizure threshold test (MES-T); assay type: in vivo; settings: mice
Method: The stimulus train was applied via ear-clip electrodes (sinusoidal pulses 4-14 mA, 50 Hz, 0.2 s duration) by means of a constant current stimulator (rodent-shocker type 221; Hugo Sachs Elektronik, March-Hugstetten, Germany). […] Groups of 20 mice were used. Control groups, which received the corresponding vehicle, were tested together with the compound-treated groups on the same experimental day. Current intensity-effect curves were obtained on the basis of the number of animals responding with the endpoint at the corresponding current value. The results are calculated as convulsive current fifty (CC50) values (current intensity in mA, necessary to produce tonic hindlimb extension in 50% of the mice tested) including the confidence limits for 95% probability. […] Chemicals, Toronto, Canada) was slowly added. The pH was adjusted with 1N NaOH (similar amount of NaOH as HCl), all with continuous stirring. […] The drug solutions or suspensions were prepared immediately before use; all doses refer to the salts. Animals in the control group received equivalent volumes of the vehicle (in mice always 10 ml/kg, in rats 1 ml/kg [JNJ], 3 ml/kg [AFC] or 4 ml/kg [BBG, TIIAS], depending on the solubility of the different compounds). Doses and peak time effects were selected on the basis of effective doses from corresponding in vivo studies in the literature: BBG (e.g.), tanshinone IIA (e.g.) and from manufacturer's experimental data: AFC, JNJ (see, [80]). Data were analysed using SigmaPlot (vers. 12.0, Systat Software, Erkrath, Germany) and SPSS (IBM SPSS Statistics 20, […], Germany), respectively. Results are expressed as mean ± SEM. […] In the PTZ-T, the number of animals in the group with clonic seizures and the latency time were analysed using Fisher's exact probability test and the Mann-Whitney rank sum test, respectively. […] In the PTZ-kindling model, the mean seizure stage within a group was calculated in relation to the number of PTZ-injections. […] In fully kindled rats, the calculated mean seizure stage within a group after vehicle- and compound-treatment were compared using a paired t-test. […]

[2] = system: Iba 1 and GFAP immunoreactivity; test: Iba 1 and GFAP immunohistochemistry, hippocampus of PTZ-kindled rats; assay type: in vivo; settings: hippocampus CA3, 24h after the 25th PTZ injection, pre-treated with AFC or JNJ
Method: One day after the last kindling session (after the 25th injection), vehicle/PTZ and compound/PTZ-treated rats as well as vehicle-only-treated or non-treated (naïve) rats as controls were transcardially perfused under deep CO2-anesthesia with 0.9% NaCl-solution, 2% paraformaldehyde (PFA, in 0.1 M sodium acetate buffer, pH 6.5) and 2% PFA/0.1% glutaraldehyde (in 0.1 M sodium borate buffer, pH 8.5) (see [73]). Brains were removed immediately and placed for 24 h in 2% PFA without glutaraldehyde (in 0.1 M sodium borate buffer, pH 8.5) at 4°C for post-fixation. […]
For immunohistochemical studies, free-floating slices were incubated in 0.1 M Sørensen’s phosphate buffer (SPP) containing 1% H2O2 for 25 min. […] The immunoreactivity was evaluated using a light microscope (Axioskop, Zeiss) equipped with a CCD digital camera (AxioCam, ICc 1, Zeiss). For quantitative analysis of the GFAP and Iba 1-staining, images (20x magnification) from the hippocampal CA3 region of vehicle-only (controls) and vehicle/PTZ-treated animals (n = 10) were recorded at constant microscope adjustment and were evaluated with the LSM (LSM 510 Meta, Zeiss) using the semiautomatic image analysis software “Histogram” function. Significant differences were determined by calculating the abundance of densely stained pixels (pixel values lower than 67% of the background) using a two-tailed Wilcoxon rank sum test. […]

## O=C(NCC1(N2CCN(c3ccccc3)CC2)CCOCC1)c1cccnc1Sc1ccccc1 [JNJ-47965567, N-[[4-(4-phenyl-piperazin-1-yl)tetrahydro-2H-pyran-4-yl]-methyl]-2-(phenyl-thio) nicotinamide]
[1]; AFC 50 mg/kg, JNJ 30 mg/kg, alone
  seizure threshold in MES-T at the higher doses: small, but non-significant increase in seizure threshold
[1]; AFC 25 and 50 mg/kg s.c. or JNJ 15 and 30 mg/kg s.c. 30 min before, with carbamazepine 7 mg/kg i.p., P < 0.01
  anticonvulsant effectiveness of co-administration with carbamazepine compared to carbamazepine alone (MES-T): significantly increased the anticonvulsant effectiveness
[2]
  immunostaining for Iba 1 and GFAP compared to vehicle/PTZ-treated animals: clearly reduced
